This note sets out measurements from paper PMC9654784, “Targeting SARS-CoV-2 nsp13 Helicase and Assessment of Druggability Pockets: Identification of Two Potent Inhibitors by a Multi-Site In Silico Drug Repurposing Approach” (Molecules, 2022).

Assay [1] deals with T1, SARS-CoV-2 nsp13 (Severe acute respiratory syndrome coronavirus 2, UniProt P0DTD1). In words: SARS-CoV-2 nsp13 ATPase (NTPase)-associated activity. It is filed as biochemical. Particulars: for Percentage of control, NTPase activity: measured in the presence of the highest tested compound concentration. As for the experimental part:
(§1) The SARS-CoV-2 nsp13 his-tagged was expressed in E. coli BL21 Rosetta 2 cells from a pNIC-ZB (addgene #159614). A purification protocol was adopted from Newman et al.. Terrific Broth media was used to culture the cells at 37 °C and at 200 rpm until 1.6 OD600. Then, protein expression was induced with […] for 16 h at 18 °C, at 200 rpm, and then pelleted and resuspended in lysis buffer (50 mM HEPES pH 7.5, 500 mM NaCl, 5% Glycerol, 10 mM Imidazole, 0.5 mM TCEP, Merck Protease inhibitor cocktail III, 1:500). After sonication and clarification at 15,000× g for 30 min, the crude extract was used for a batch binding of 40 min in a three-dimensional rotating mixer with 5 mL of Ni-sepharose (cytiva) under orbital. Then, the tubes were centrifuged at 700× g at 4 °C for 5 min, and the resin was loaded onto a gravity flow column (econo column BioRad) connected to a BioLogic LP (BioRad). It was subsequently washed (1 mL/min) with a lysis buffer for 40 min and with a wash buffer (50 mM HEPES pH 7.5, 500 mM NaCl, 5% Glycerol, 45 mM Imidazole, 0.5 mM TCEP) for 25 min. A further 10 min wash with a Hi-salt buffer (50 mM HEPES pH 7.5, 1 M NaCl, 5% Glycerol, 0.5 mM TCEP) was performed, followed by another 10 min of wash buffer. Proteins were eluted with the addition of 15 mL of elution buffer (50 mM HEPES pH 7.5, 500 mM NaCl, 5% Glycerol, 300 mM Imidazole, 0.5 mM TCEP). The elution fraction was analyzed for purity by SDS page, and clean fractions were pooled and dialyzed against a desalting buffer containing 25 mM HEPES pH 7.5, 250 mM NaCl, 20% Glycerol, and 0.25 mM TCEP. Proteins were stored at −80 °C.
The SARS-CoV-2 nsp13 helicase-associated activity was measured in a transparent 96-well plate (PerkinElmer), as described in [34]. Briefly, the reaction mixture contained 20 mM Tris–HCl pH 7.2, 50 mM NaCl, 2 mM MgCl2, 10 µg/mL of BSA, 180 µM TCEP, 5% DMSO or inhibitor, and 25 nM of purified nsp13. The reaction was started by adding 400 µM ATP. Total reaction volume was 25 μL. Compound Licoflavone C was used as positive control of inhibition. The reaction lasted for 30 min at 37 °C. […] The products were measured with Victor Nivo (Perkin) at 650 nm.

The target of assay [2] is T1, SARS-CoV-2 nsp13. Put plainly: SARS-CoV-2 nsp13 unwinding-associated activity. It is filed as biochemical. The following applies: for IC50: concentration required to inhibit nsp13-associated unwinding activity by 50%, 1 nM nsp13, 1 mM ATP, 750 nM DNA substrate; for Percentage of control, unwinding activity: measured in the presence of the highest tested compound concentration. How it is done: as §1
The SARS-CoV-2 nsp13 unwinding-associated activity was measured in black 384-well plates (PerkinElmer). The reaction mixture, as described in [34], contained 20 mM Tris–HCl pH 7.2. 50 mM NaCl, 2 mM MgCl2, 10 μg/mL of BSA, 180 μM TCEP, 2 μM Hel Capture oligo (5′- […] -3′) (Biomers) 5% DMSO or inhibitor, and 1 nM of purified nsp13. The enzyme was pre-incubated for 10 min with the inhibitor at room temperature, and then reaction was started by adding 1 mM ATP and 750 nM annealed DNA substrate (5′- […]-Cy3-3′. 5′- BHQ-2-[…]-3′) (Biomers). Reaction volume was 40 μL. Compounds SSYA10-001 and Licoflavone C were used as positive controls of inhibition; the reaction lasted for 15 min at 37 °C, and then the products were measured with Victor Nivo (Perkin) at 530/580 nm.

Where [3] appears, read: concentration required to inhibit nsp13-associated ATPase activity by 50%, 25 nM nsp13, 400 µM ATP.

For the compound `OC[C@H]1O[C@@H](Oc2cc(O)cc(/C=C/c3ccc(O)cc3)c2)[C@H](O)[C@@H](O)[C@@H]1O` [Polydatin], the IC50 – broadly, the concentration that gives 50% inhibition – in assay [1] (setting [3]) is over 30 µM. The “Percentage of control, NTPase activity” value in assay [1] is recorded as 100%. Also, in assay [2], the IC50 was over 30 µM and the “Percentage of control, unwinding activity” value was found to be 100%.

In turn, `C=CCn1c(CSc2ccccc2[N+](=O)[O-])n[nH]c1=S` [SSYA10-001] registered an IC50 in assay [2] of 2.3 ± 0.7 µM.

In the case of `CC(C)(C)c1cc(NC(=O)NCc2ccccc2Sc2ccc3nnc(-c4ccccc4SCCO)n3c2)n(-c2ccc(O)c(Cl)c2)n1` [PF-03715455], the results for the IC50 in assay [1] (setting [3]) and in assay [2] were 9.26 ± 1.93 µM and 3.02 ± 0.21 µM, respectively.

Turning to “nicotinamide adenine dinucleotide [NADH]”, the “Percentage of control, NTPase activity” value in assay [1] stood at 100%. For the same compound, the “Percentage of control, unwinding activity” value in assay [2] was 100%.

As to `CC(C)(Cc1cccc(CC(=O)NCc2cccc(-c3ccc(O)cc3)c2)c1)NC[C@H](O)c1ccc(O)c(NS(C)(=O)=O)c1` [PF-00610355], in assay [1] (setting [3]), the IC50 was over 30 µM and the “IC50 NTPase” value is recorded as “not active”. The “Percentage of control, NTPase activity” value in assay [1] amounted to 100%. For the same compound, in assay [2], inhibition was half-maximal at 22.4 ± 1.7 µM (IC50).

As to `CC(C)=CCc1c(O)cc(O)c2c(=O)cc(-c3ccc(O)cc3)oc12` [Licoflavone C], the IC50 is 20.9 ± 0.8 µM in assay [1] (setting [3]) and 8.7 ± 1.3 µM in assay [2].

As for `CCO/N=C(\C(=O)N[C@@H]1C(=O)N2C(C(=O)[O-])=C(Sc3nc(-c4cc[n+](C)cc4)cs3)CS[C@H]12)c1nsc(NP(=O)(O)O)n1` [Ceftaroline fosamil], in assay [1] (setting [3]), the IC50 was over 30 µM. Besides, in assay [1], the “Percentage of control, NTPase activity” value was determined as 100%. For the same compound, in assay [2], the IC50 was over 30 µM and the “Percentage of control, unwinding activity” value is 100%.
